pIC50: −log10 of the molar value. Where a name gives a salt, the structure may show the parent alone. Read-outs that look alike come from different tables or passages of the source.
Legend:
SK-MEL-28 tumor cells = assay: Cell growth inhibition assay (CellTiter-Glo), SK-MEL-28; details: Homo sapiens, SK-MEL-28, 72 h, read-out: Activity in SK-MEL-28 Tumor Cells;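 note: luminescent total ATP as a proxy for cell number, threefold serial dilutions at 0.2% DMSO, percent growth inhibition versus DMSO vehicle control wells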
HT-29 tumor cells = assay: Cell growth inhibition assay (CellTiter-Glo), HT-29; details: Homo sapiens, HT-29, 72 h, read-out: Activity in HT-29 Tumor Cells;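 note: ATP content read by luminescence as proxy for cell number, growth inhibition versus DMSO vehicle wells, 0.2% DMSO final, nine serial threefold compound dilutions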
Protocol: (§1) Cell Growth Inhibition Assays Human colon tumor cells (Colo205) were cultured in RPMI (Mediatech 50-020-PB) containing 10% FBS and 1% penicillin-streptomycin. […] Human melanoma cancer cells (A375-F11S) were cultured in RPMI (Mediatech 50-020-PB) containing 10% FBS, 1% sodium pyruvate, and 1% penicillin-streptomycin. Human colon cancer cells (HT-29) were cultured in high glucose DMEM (Mediatech 50-013-PB) containing 10% FBS and 1% penicillin-streptomycin. Human melanoma cancer cells (SK-MEL-3) were cultured in McCoy's 5A (50-025-PB) containing 15% FBS, and 1% penicillin-streptomycin. All cell lines were maintained at 37° C. in a humidified 5% CO2, 95% air incubator.
(§2) The next day, compounds were diluted as follows: For 96-well assays, 13.5 μl of compound in DMSO were diluted using nine (9) serial 1:3 dilutions of 4.5 μl in 9 μl of DMSO. Medium (270 μl/well of RPMI with 10% FBS and 1% penicillin-streptomycin) was added to the plates. Aliquots (7 μl) were added to cells in the final assay giving a final DMSO concentration of 0.2%. For 384-well assays, 15 μl of compound in DMSO were diluted using nine (9) serial 1:3 dilutions of 5 μl in 10 μl of DMSO, followed by a further dilution of 5 μl of compound with 95 μl of medium, of which 2 μl are added to cells in the final assay giving a final DMSO concentration of 0.2%. Cells were incubated at 37° C., 5% CO2 for 3 days.
(§3) Total ATP was measured (as a surrogate estimate of cell number) using CellTiter-Glo® (Promega G7571) reagent. Briefly, plates were removed from the incubator and allowed to equilibrate to room temperature for 30 minutes. CellTiter-Glo® (25 μl or 55 μl for 384-well or 96-well assays, respectively) reagent was added to each well and plates were shaken on an orbital plate shaker for 2 minutes. Plates were incubated without shaking for a further 30 minutes and read on an LJL Analyst GT reader in luminometer mode with an integration time of 0.5 seconds per well. Percent inhibition of cell growth was calculated relative to DMSO vehicle-treated control wells.

A375P tumor cells = assay: Cell growth inhibition assay (CellTiter-Glo), A375P; details: Homo sapiens, 72 h, read-out: Activity in A375P Tumor Cells;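 note: total ATP luminescence used as proxy for cell number, serial threefold compound dilutions at 0.2% DMSO, growth inhibition expressed versus DMSO vehicle-treated wells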
B-Raf = B-Raf (Homo sapiens, UniProt P15056); assay: B-Raf Accelerated MEK ATPase assay (BRAMA); assay type: biochemical
Protocol: Compounds of the present invention were tested for B-Raf […] inhibitory activity in a B-Raf Accelerated MEK ATPase assay (BRAMA). The BRAMA assay is a high sensitivity assay which measures an intrinsic MEK-mediated ATP hydrolysis uncoupled from downstream ERK phosphorylation by coupling the formation of ADP to NADH oxidation through the enzymes pyruvate kinase and lactate dehydrogenase. When ADP production is initiated by addition of catalytic amounts of an activated RAF enzyme and non-phosphorylated MEK, one observes robust ADP production concomitant with RAF-mediated phosphorylation of MEK. Specific details of the assay are disclosed in: C. Rominger, M. Schaber, E. May. Assay for B-Raf Activity Based on Intrinsic MEK ATPase Activity.

SK-MEL-3 tumor cells = assay: Cell growth inhibition assay (CellTiter-Glo), SK-MEL-3; details: Homo sapiens, SK-MEL3, 72 h, read-out: Activity in SK-MEL-3 Tumor Cells;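 note: human melanoma cells grown with compound for 3 days in 0.2% DMSO, total ATP read by luminescence as proxy for cell number, growth inhibition versus DMSO-treated wells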
Protocol: as §1, §2, §3

Colo205 tumor cells = assay: Cell growth inhibition assay (CellTiter-Glo), Colo205; details: Homo sapiens, COLO 205, 72 h, read-out: Activity in Colo205 Tumor Cells;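 note: growth measured via total ATP luminescence (CellTiter-Glo) as a proxy for cell number, inhibition expressed against DMSO-treated control wells, 3-day exposure at 0.2% final DMSO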
Protocol: as §1, §2, §3

[1] = BRAMA enzyme assay, class by pIC50, read-out: B-Raf Activity

| Structure (SMILES) | pIC50 (SK-MEL-28 tumor cells) | pIC50 (HT-29 tumor cells) | pIC50 (A375P tumor cells) | pIC50 (B-Raf; [1]) | pIC50 (SK-MEL-3 tumor cells) | pIC50 (Colo205 tumor cells) | pIC50 (B-Raf) |
| --- | --- | --- | --- | --- | --- | --- | --- |
| CCNc1nc(-c2cccc(N(C)C)c2)c(-c2ccnc(Nc3ccc(N4CCOCC4)nc3)n2)s1 [Example 47, 4-[4-[3-(Dimethylamino)phenyl]-2-(ethylamino)-1,3-thiazol-5-yl]-N-[6-(4-morpholinyl)-3-pyridinyl]-2-pyrimidinamine] | < 5.30 | > 6.30 | > 6.30 | > 7.00 | > 6.30 | 5.30 to 6.30 | – |
| CCNc1nc(-c2cccc(OC)c2)c(-c2ccnc(Nc3ccc(N4CCOCC4)nc3)n2)s1 [Example 42, 4-{2-(Ethylamino)-4-[3-(methyloxy)phenyl]-1,3-thiazol-5-yl}-N-[6-(4-morpholinyl)-3-pyridinyl]-2-pyrimidinamine] | 5.30 to 6.30 | > 6.30 | > 6.30 | > 7.00 | > 6.30 | > 6.30 | – |
| COc1cc(OC)cc(-c2nc(NC3CC3)sc2-c2ccnc(Nc3ccc(O[C@@H]4CCN(CCF)C4)nc3)n2)c1 [Example 19, 4-[4-[3,5-Bis(methyloxy)phenyl]-2-(cyclopropylamino)-1,3-thiazol-5-yl]-N-(6-{[(3R)-1-(2-fluoroethyl)-3-pyrrolidinyl]oxy}-3-pyridinyl)-2-pyrimidinamine] | > 6.30 | > 6.30 | > 6.30 | > 7.00 | > 6.30 | > 6.30 | – |
| CCNc1nc(-c2ccc3c(c2)OCO3)c(-c2ccnc(Nc3ccc(OC4CCN(CCS(C)(=O)=O)CC4)c(F)c3)n2)s1 [Example 52, 4-[4-(1,3-Benzodioxol-5-yl)-2-(ethylamino)-1,3-thiazol-5-yl]-N-[3-fluoro-4-({1-[2-(methylsulfonyl)ethyl]-4-piperidinyl}oxy)phenyl]-2-pyrimidinamine] | > 6.30 | > 6.30 | > 6.30 | > 7.00 | > 6.30 | > 6.30 | – |
| CCNc1nc(-c2cc(OC)cc(OC)c2)c(-c2ccnc(Nc3cc(F)c(OC4CCN(CCS(C)(=O)=O)CC4)c(F)c3)n2)o1 [Example 90] | > 6.30 | > 6.30 | 5.30 to 6.30 | > 7.00 | > 6.30 | > 6.30 | – |
| CCNc1nc(-c2cc(C)cc(OC)c2)c(-c2ccnc(Nc3ccc(N4CCN(CCF)CC4)c(F)c3)n2)o1 [Example 128] | 5.30 to 6.30 | 5.30 to 6.30 | 5.30 to 6.30 | – | 5.30 to 6.30 | > 6.30 | > 7.00 |
| CCNc1nc(-c2cc(C)cc(OC)c2)c(-c2ccnc(Nc3cc(OC)c(OC4CCN(CCS(C)(=O)=O)CC4)c(OC)c3)n2)o1 [Example 131] | 5.30 to 6.30 | 5.30 to 6.30 | 5.30 to 6.30 | > 7.00 | > 6.30 | > 6.30 | – |
| CCNc1nc(-c2cc(Cl)cc(OC)c2)c(-c2ccnc(Nc3ccc(N4CCN(CCF)CC4)c(F)c3)n2)o1 [Example 104] | 5.30 to 6.30 | > 6.30 | 5.30 to 6.30 | > 7.00 | 5.30 to 6.30 | > 6.30 | – |
| CCNc1nc(-c2cc(C)cc(OC)c2)c(-c2ccnc(Nc3ccc(N4CCN(CCS(C)(=O)=O)CC4)c(F)c3)n2)o1 [Example 127] | > 6.30 | > 6.30 | 5.30 to 6.30 | > 7.00 | > 6.30 | > 6.30 | – |
| CCNc1nc(-c2cc(OC)cc(OC)c2)c(-c2ccnc(Nc3ccc(N4CCN(CCF)CC4)c(F)c3)n2)s1 [Example 8, 4-[4-[3,5-Bis(methyloxy)phenyl]-2-(ethylamino)-1,3-thiazol-5-yl]-N-{3-fluoro-4-[4-(2-fluoroethyl)-1-piperazinyl]phenyl}-2-pyrimidinamine] | > 6.30 | > 6.30 | 5.30 to 6.30 | > 7.00 | > 6.30 | > 6.30 | – |
| CCNc1nc(-c2cc(OC)cc(OC)c2)c(-c2ccnc(Nc3ccc(N4CCN(CCF)CC4)c(F)c3)n2)o1 [Example 117] | 5.30 to 6.30 | 5.30 to 6.30 | 5.30 to 6.30 | > 7.00 | 5.30 to 6.30 | > 6.30 | – |
| COc1cccc(-c2nc(C(C)C)sc2-c2ccnc(Nc3ccc(OC4CCN(C(C)C)CC4)c(F)c3)n2)c1 [Example 59, N-(3-Fluoro-4-{[1-(1-methylethyl)-4-piperidinyl]oxy}phenyl)-4-{2-(1-methylethyl)-4-[3-(methyloxy)phenyl]-1,3-thiazol-5-yl}-2-pyrimidinamine] | 5.30 to 6.30 | > 6.30 | 5.30 to 6.30 | > 7.00 | > 6.30 | > 6.30 | – |
| CCNc1nc(-c2cc(OC)cc(OC)c2)c(-c2ccnc(Nc3ccc(OC4CCN(C(C)=O)CC4)c(F)c3)n2)s1 [Example 12, N-{4-[(1-Acetyl-4-piperidinyl)oxy]-3-fluorophenyl}-4-[4-[3,5-bis(methyloxy)phenyl]-2-(ethylamino)-1,3-thiazol-5-yl]-2-pyrimidinamine] | 5.30 to 6.30 | > 6.30 | > 6.30 | > 7.00 | > 6.30 | > 6.30 | – |
| CCNc1nc(-c2cc(OC)cc(OC)c2)c(-c2ccnc(Nc3ccc(OCCN4CCOCC4)c(F)c3)n2)s1 [Example 13, 4-[4-[3,5-Bis(methyloxy)phenyl]-2-(ethylamino)-1,3-thiazol-5-yl]-N-(3-fluoro-4-{[2-(4-morpholinyl)ethyl]oxy}phenyl)-2-pyrimidinamine] | 5.30 to 6.30 | > 6.30 | 5.30 to 6.30 | > 7.00 | > 6.30 | 5.30 to 6.30 | – |
| CCNc1nc(-c2cc(OC)cc(OC)c2)c(-c2ccnc(Nc3ccc(N4CCN(CC)CC4)cc3)n2)s1 [Example 5, 4-[4-[3,5-Bis(methyloxy)phenyl]-2-(ethylamino)-1,3-thiazol-5-yl]-N-[4-(4-ethyl-1-piperazinyl)phenyl]-2-pyrimidinamine trifluoroacetate] | 5.30 to 6.30 | > 6.30 | 5.30 to 6.30 | > 7.00 | > 6.30 | 5.30 to 6.30 | – |

The next lines start with results.

| pIC50 (SK-MEL-28 tumor cells) | pIC50 (HT-29 tumor cells) | pIC50 (A375P tumor cells) | pIC50 (B-Raf; [1]) | pIC50 (SK-MEL-3 tumor cells) | pIC50 (Colo205 tumor cells) | Structure (SMILES) | pIC50 (B-Raf) |
| --- | --- | --- | --- | --- | --- | --- | --- |
| 5.30 to 6.30 | 5.30 to 6.30 | 5.30 to 6.30 | > 7.00 | > 6.30 | 5.30 to 6.30 | COc1cc(OC)cc(-c2nc(NC3CC3)sc2-c2ccnc(Nc3ccc4c(c3)CN(C)CC4)n2)c1 [Example 15, N-{4-[4-[3,5-Bis(methyloxy)phenyl]-2-(cyclopropylamino)-1,3-thiazol-5-yl]-2-pyrimidinyl}-2-methyl-1,2,3,4-tetrahydro-7-isoquinolinamine] | – |
| 5.30 to 6.30 | > 6.30 | > 6.30 | > 7.00 | > 6.30 | > 6.30 | CCNc1nc(-c2cc(OC)cc(OC)c2)c(-c2ccnc(Nc3ccc(N4CCN(CCS(C)(=O)=O)CC4)c(F)c3)n2)s1 [Example 6, 4-[4-[3,5-Bis(methyloxy)phenyl]-2-(ethylamino)-1,3-thiazol-5-yl]-N-(3-fluoro-4-{4-[2-(methylsulfonyl)ethyl]-1-piperazinyl}phenyl)-2-pyrimidinamine trifluoroacetate] | – |
| 5.30 to 6.30 | 5.30 to 6.30 | 5.30 to 6.30 | > 7.00 | > 6.30 | 5.30 to 6.30 | CCNc1nc(-c2cc(OC)cc(OC)c2)c(-c2ccnc(Nc3ccc(OC4CCN(CCOC)CC4)c(F)c3)n2)o1 [Example 89] | – |
| 5.30 to 6.30 | > 6.30 | 5.30 to 6.30 | > 7.00 | 5.30 to 6.30 | 5.30 to 6.30 | CCNc1nc(-c2cccc(N(C)C)c2)c(-c2ccnc(Nc3ccc(OCCN4CCCC4)c(Cl)c3)n2)s1 [Example 45, N-(3-Chloro-4-{[2-(1-pyrrolidinyl)ethyl]oxy}phenyl)-4-[4-[3-(dimethylamino)phenyl]-2-(ethylamino)-1,3-thiazol-5-yl]-2-pyrimidinamine] | – |
| > 6.30 | > 6.30 | > 6.30 | > 7.00 | > 6.30 | > 6.30 | COc1cc(OC)cc(-c2nc(NC3CC3)sc2-c2ccnc(Nc3ccc(OCCN(C)C)c(Cl)c3)n2)c1 [Example 105] | – |
| 5.30 to 6.30 | > 6.30 | > 6.30 | > 7.00 | > 6.30 | 5.30 to 6.30 | CCc1nc(-c2cccc(CO)c2)c(-c2ccnc(Nc3ccc(N4CCOCC4)c(F)c3)n2)s1 [Example 67, {3-[2-Ethyl-5-(2-{[3-fluoro-4-(4-morpholinyl)phenyl]amino}-4-pyrimidinyl)-1,3-thiazol-4-yl]phenyl}methanol] | – |
| 5.30 to 6.30 | > 6.30 | > 6.30 | > 7.00 | > 6.30 | 5.30 to 6.30 | CCNc1nc(-c2cc(OC)ccn2)c(-c2ccnc(Nc3ccc(OCCN4CCCC4)c(Cl)c3)n2)s1 [Example 57, N-(3-Chloro-4-{[2-(1-pyrrolidinyl)ethyl]oxy}phenyl)-4-{2-(ethylamino)-4-[4-(methyloxy)-2-pyridinyl]-1,3-thiazol-5-yl}-2-pyrimidinamine] | – |
